Results published in patent publication US6623981B2, “Detection of patients at risk for developing integrin antagonist/agonist mediated disease states” (Bristol-Myers Squibb Company, priority 1998, dated 2003).

Experiments:
[1] = system: platelet aggregation in platelet-rich plasma; assay: ADP-induced platelet aggregation in platelet-rich plasma (PRP); format: cell-based
Protocol: (§1) The reactivity of the patient's plasma with Compound A and metabolites thereof was compared. Metabolites of Compound A were isolated from rat urine and tested for their ability to prevent platelet aggregation in platelet-rich plasma. The ability of DDABs present in plasma from a patient to bind to GPIIb/IIIa in the presence of the indicated metabolites of Compound A was tested using the GPIIb/IIIa DDAB ELISA. All three metabolites of Compound A were active in preventing ADP-induced platelet aggregation using platelet rich plasma. While the metabolites only differ from the parental compound (Compound A) with respect to hydroxylation of a single carbon atom, the reactivity of the patient's DDABs with metabolite M-3 was only 50% and that with metabolite M-2 was undetectable.

[2] = Blood concentration in dosed patients; format: in vivo
[3] = biological target: T1, immobilized GPIIb/IIIa (Homo sapiens, UniProt P05106+P08514); assay: GPIIb/IIIa DDAB ELISA: binding of plasma drug-dependent antibodies in presence versus absence of GPIIb/IIIa antagonist; conditions: for reactivity of the thrombocytopenic chimpanzee plasma in the DDAB ELISA / reactivity of the patient's plasma in the DDAB ELISA: in words; for ratio mOD/minute in the presence versus absence of the respective compound: antagonist 100 nM
T1 construct: GPIIb/IIIa was either obtained from commercial sources (Enzyme Research Laboratories) or purified as outlined below; Outdated platelet concentrates; tissue Enzyme Research Laboratories (alternative source; no catalogue number given); host or cells: outdated platelet concentrates (Interstate Blood Bank)
T1 sequence (P08514 32-887 limits assumed): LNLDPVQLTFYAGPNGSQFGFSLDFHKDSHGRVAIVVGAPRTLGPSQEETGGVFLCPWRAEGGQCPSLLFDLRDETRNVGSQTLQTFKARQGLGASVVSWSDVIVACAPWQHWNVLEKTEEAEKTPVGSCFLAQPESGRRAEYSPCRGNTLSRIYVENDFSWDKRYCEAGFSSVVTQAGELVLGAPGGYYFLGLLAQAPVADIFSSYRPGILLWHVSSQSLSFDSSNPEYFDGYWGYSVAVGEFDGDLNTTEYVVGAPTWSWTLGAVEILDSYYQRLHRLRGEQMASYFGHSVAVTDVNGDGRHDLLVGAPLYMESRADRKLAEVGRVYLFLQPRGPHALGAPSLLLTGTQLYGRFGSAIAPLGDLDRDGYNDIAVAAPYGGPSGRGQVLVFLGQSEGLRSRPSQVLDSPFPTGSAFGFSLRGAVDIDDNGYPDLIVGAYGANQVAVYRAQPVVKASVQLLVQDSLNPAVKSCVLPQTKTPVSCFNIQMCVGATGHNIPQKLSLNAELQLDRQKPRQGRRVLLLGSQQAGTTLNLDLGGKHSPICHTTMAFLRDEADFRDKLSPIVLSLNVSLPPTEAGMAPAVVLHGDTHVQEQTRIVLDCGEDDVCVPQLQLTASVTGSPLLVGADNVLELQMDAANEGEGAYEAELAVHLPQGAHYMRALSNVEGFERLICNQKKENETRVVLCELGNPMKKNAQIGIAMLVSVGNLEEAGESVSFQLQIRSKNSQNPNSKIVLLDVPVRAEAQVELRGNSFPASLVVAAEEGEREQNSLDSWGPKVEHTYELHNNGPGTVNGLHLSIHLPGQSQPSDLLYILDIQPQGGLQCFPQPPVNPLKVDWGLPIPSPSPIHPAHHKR
T1 sequence (P08514 891-1039 limits assumed): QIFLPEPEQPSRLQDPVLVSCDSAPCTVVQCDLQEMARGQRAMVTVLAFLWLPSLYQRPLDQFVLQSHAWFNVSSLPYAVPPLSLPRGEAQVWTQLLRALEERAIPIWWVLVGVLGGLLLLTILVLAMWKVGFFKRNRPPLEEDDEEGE
T1 sequence (P05106 27-788): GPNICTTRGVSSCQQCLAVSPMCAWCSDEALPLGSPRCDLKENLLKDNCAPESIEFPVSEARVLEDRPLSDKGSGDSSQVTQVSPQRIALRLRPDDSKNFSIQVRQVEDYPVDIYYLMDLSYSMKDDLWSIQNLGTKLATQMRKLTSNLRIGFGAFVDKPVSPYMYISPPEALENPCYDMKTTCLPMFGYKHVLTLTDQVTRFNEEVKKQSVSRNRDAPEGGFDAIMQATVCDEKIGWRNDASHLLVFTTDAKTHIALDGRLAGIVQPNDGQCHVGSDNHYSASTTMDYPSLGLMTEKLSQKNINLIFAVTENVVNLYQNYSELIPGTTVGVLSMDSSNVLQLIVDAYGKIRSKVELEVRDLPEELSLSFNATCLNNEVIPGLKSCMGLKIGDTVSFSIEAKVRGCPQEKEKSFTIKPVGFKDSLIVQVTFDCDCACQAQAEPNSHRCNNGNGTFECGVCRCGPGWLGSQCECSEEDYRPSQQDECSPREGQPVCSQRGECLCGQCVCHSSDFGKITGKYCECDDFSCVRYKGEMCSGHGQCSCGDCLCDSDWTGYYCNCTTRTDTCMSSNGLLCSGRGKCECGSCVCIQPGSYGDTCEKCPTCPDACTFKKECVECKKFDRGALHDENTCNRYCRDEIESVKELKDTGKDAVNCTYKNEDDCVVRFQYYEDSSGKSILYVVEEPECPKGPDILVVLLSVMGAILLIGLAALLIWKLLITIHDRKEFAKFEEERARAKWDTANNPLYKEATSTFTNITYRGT
Protocol: (§2) In the ELISA Type-2 procedure, Costar Enzyme Immunoassay/Radioimmunoassay [EIA/RIA] 96 well flat bottom plates (medium binding [#3591]) were coated (4° C., 16 hours) with 250 ng of GPIIb/IIIa in phosphate buffered saline (PBS) containing 1 mM CaCl2 and 0.5 mM MgCl2 (PBS/Ca/Mg) in the presence or absence of the indicated GPIIb/IIIa antagonist (100 nM). After three washing steps (PBS/Ca/Mg containing 0.05% v/v Tween 20), plasma was diluted 1:5 in PBS/Ca/Mg containing 0.05% Tween 20 and added to the coated wells in the absence or presence of the indicated GPIIb/IIIa antagonist (100 nM) for 1 hour at room temperature. The wells were washed (PBS/Ca/Mg containing 0.05% v/v Tween 20) and incubated with peroxidase-labeled goat anti-human IgG (y) (Kirkegaard & Perry) for 1 hour at room temperature. The wells were washed (PBS/Ca/Mg containing 0.05% v/v Tween 20) and developed with o-phenyleninediamine [OPD] (0.4 mg/mL in phosphate citrate buffer containing sodium perborate [Sigma]). The change of absorbance was determined kinetically for 15 minutes at […] using a standard ELISA reader. Results are expressed as either delta OD [change in optical density] (Vmax plus compound)−(Vmax minus compound), or the ratio (Vmax plus compound/Vmax minus compound).
In the ELISA Type-1 procedure, after coating with GPIIb/IIIa, the plates were blocked with 1% goat serum (VWR Scientific) and 0.1% casein (Sigma) in PBS/Ca/Mg containing 0.05% Tween 20 for 30 minutes at room temperature, followed by the addition of plasma (diluted in PBS/Ca/Mg containing 0.05% Tween 20, 1% v/v goat serum, 0.1% casein) for 1 hour at room temperature. The secondary antibody was diluted 1:10,000 in PBS/Ca/Mg containing 0.05% Tween 20 and 0.1% casein, and added for 1 hour at room temperature. The bound peroxidase-labeled IgG was detected with 3,3′,5,5′-tetramethylbenzidine (TMB, substrate kit; Pierce) and change in absorbance was determined for 5 minutes at […]. In addition, in the ELISA Type-1 procedure, the respective GPIIb/IIIa antagonist (100 nM) was present in the appropriate wells throughout all incubation and washing steps. The ELISA Type-1 procedure with optimized blocking conditions combined with further purification of the GPIIb/IIIa reduced the background, resulting in increased signal to noise ratio. The immunoglobulin class of DDABs was determined using peroxidase-labeled murine monoclonal antibodies to human Ig (Zymed) as the detection step in the modified ELISA protocol. For these experiments, normal goat serum was replaced with normal murine serum (Zymed).
The ability of DDABs present in plasma from a patient and a chimpanzee to bind to immobilized GPIIb/IIIa in the presence of various GPIIb/IIIa antagonists were compared. Results are expressed as the ratio mOD/minute in the presence versus absence of the respective compound.
as §1

[4] = biological target: T2, GPIIb/IIIa (Homo sapiens, UniProt P05106+P08514); assay: DDAB ELISA Type-2 screen of blood donor plasma (general population); format: binding; conditions: American Red Cross blood donors
T2 construct: GPIIb/IIIa was either obtained from commercial sources (Enzyme Research Laboratories) or purified as outlined below; Outdated platelet concentrates; tissue Enzyme Research Laboratories (alternative source; no catalogue number given); host or cells: outdated platelet concentrates (Interstate Blood Bank)
T2 sequence (P08514 32-887 limits assumed): as the sequence (P08514 32-887 limits assumed) above
T2 sequence (P08514 891-1039 limits assumed): as the sequence (P08514 891-1039 limits assumed) above
T2 sequence (P05106 27-788): as the sequence (P05106 27-788) above
Protocol: as §2
The occurrence of DDABs in the general population was tested. Plasma samples from blood donors were obtained from the American Red Cross and tested for reactivity with Compound A and Compound B in the DDAB ELISA Type-2 procedure. While the majority of the blood donors were negative in the DDAB ELISA, 2.2 and 14.6% donors presented a reactivity (delta>3) with Compound A and Compound B, respectively. A reactivity with a delta >5 was only evident in 1.3% and 7.1% of the blood donors with Compound A and Compound B, respectively. Thus, the prevalence and titer of pre-existing DDABs is relatively low in the general population and varies with the respective GPIIb/IIIa antagonist employed.

[5] = system: gel purified platelets; assay: Distribution of DDABs from plasma to gel purified platelets, dose-response of antagonist, read by DDAB ELISA; format: cell-based, human; conditions: plasma of healthy donor with DDABs to Compound A
Protocol: Panel A: Citrate plasma was obtained from two patients (307, 330) and a chimpanzee (A264) presenting with thrombocytopenic episodes while treated with GPIIb/IIIa antagonists Compound A or Compound D, respectively. The resulting plasma was incubated (30 minutes, room temperature) with gel purified platelets in the absence (closed bars) or presence (open bars) of Compound A (307, 330), or Compound D (A264). Platelets were removed by centrifugation, and the resulting plasma was analyzed by a GPIIb/IIIa-specific DDAB ELISA. The ELISA determines the binding of antibodies to GPIIb/IIIa in the presence of Compound A (307, 330) or Compound D (A264). […] Panel B: Citrate plasma derived from chimpanzee A264 (open circles) or an apparently healthy donor (closed circles) containing DDABs to Compound A was incubated with gel purified platelets in the presence of the indicated dose-response of Compound D (A264) or Compound A (healthy donor) as in panel A. Platelet poor plasma was prepared and analyzed by the DDAB ELISA as in panel A. Results are expressed as percentage inhibition of DDABs in plasma in comparison to samples treated with platelets in the absence of GPIIb/IIIa antagonist.
For solution-phase absorption in the DDAB ELISA, gel filtered platelets were prepared. […] Platelet-containing fractions were manually collected and platelet concentration was determined using a Coulter Counter. […]

[6] = plasma #330 (thrombocytopenic patient treated with Compound A)
[7] = plasma A264 (thrombocytopenic chimpanzee dosed with Compound D)

| reactivity of the thrombocytopenic chimpanzee plasma in the DDAB ELISA [3] | reactivity of the patient's plasma in the DDAB ELISA [3] | ratio mOD/minute in the presence versus absence of the respective compound [3, 6] | ratio mOD/minute in the presence versus absence of the respective compound [3, 7] | SMILES | IC50 [1] [nM] | Peak blood concentrations [2] | ELISA ratio ([3]; DDABs in plasma from a patient, binding to GPIIb/IIIa in presence of Compound A or its metabolites) | blood donors with a reactivity with a delta >5 [4] [%] | donors presenting a reactivity (delta>3) [4] [%] | IC50 ([5]; estimated, read-out: IC50 (inhibition of DDABs in plasma by distribution to platelets)) [nM] | concentration required to completely shift the DDABs to the platelet surface ([5]; 30 minutes, room temperature) |
| --- | --- | --- | --- | --- | --- | --- | --- | --- | --- | --- | --- |
| no reactivity | reacts strongly | 11.2 | 0.8 | Cc1noc(C)c1S(=O)(=O)N[C@@H](CNC(=O)C[C@H]1CC(c2ccc(C(=N)N)cc2)=NO1)C(=O)O [Compound B] | – | – | – | 7.1 | 14.6 | – | – |
| less | no reactivity | 1.0 | 5.4 | Cc1ccc(S(=O)(=O)N[C@@H](CNC(=O)c2cc3n(n2)CCCN(CCC2CCNCC2)C3=O)C(=O)O)cc1 [Compound C, 2(S)-((4-methylphenylsulfonyl)amino]-3-[[[5,6,7,8-tetrahydro-4-oxo-5-[2-(piperidin-4-yl)ethyl]-4H-pyrazolo-[1,5-a][1,4]diazepin-2-yl]carbonyl]amino]propionic acid] | – | – | – | – | – | – | – |
| strongly reactive | reacts strongly | 4.9 | 14.4 | O=C(NC[C@H](NS(=O)(=O)c1cccnc1)C(=O)O)c1cc2cc(CCC3CCNCC3)sc2s1 [Compound D, 5-[2-(piperdin-4-yl)ethyl]thieno[2,3-b]thiophene-2-N-(3-2(S)-(3-pyridinylsulfonylamino)propionic acid]carboxamide] | – | – | – | – | – | – | – |

| SMILES | reactivity of the thrombocytopenic chimpanzee plasma in the DDAB ELISA [3] | reactivity of the patient's plasma in the DDAB ELISA [3] | ratio mOD/minute in the presence versus absence of the respective compound [3, 6] | ratio mOD/minute in the presence versus absence of the respective compound [3, 7] | IC50 [1] [nM] | Peak blood concentrations [2] | ELISA ratio ([3]; DDABs in plasma from a patient, binding to GPIIb/IIIa in presence of Compound A or its metabolites) | blood donors with a reactivity with a delta >5 [4] [%] | donors presenting a reactivity (delta>3) [4] [%] | IC50 ([5]; estimated, read-out: IC50 (inhibition of DDABs in plasma by distribution to platelets)) [nM] | concentration required to completely shift the DDABs to the platelet surface ([5]; 30 minutes, room temperature) |
| --- | --- | --- | --- | --- | --- | --- | --- | --- | --- | --- | --- |
| CCCCOC(=O)N[C@@H](CNC(=O)C[C@H]1CC(c2ccc(C(=N)N)cc2)=NO1)C(=O)O [Compound A, 2(S)-[(n-butoxycarbonyl)amino]-3-[[[3-[4-(aminoiminomethyl)phenyl]isoxazolin-5 (R)-yl]methylcarbonyl]amino]propionic acid] | no reactivity | reacts strongly | 9.2 | 1.0 | 32 | up to 50 nM | 13.5 | 1.3 | 2.2 | ~0.3 | Less than 1 nM |
